# Assay results reported in ChEMBL document CHEMBL5625280, “Discovery of novel nucleoside derivatives as selective lysine acetyltransferase p300 inhibitors for cancer therapy” (Bioorg Med Chem Lett, 2024).
# Test system: NCI-H520
# Assay: Antiproliferative activity against human NCI-H520 cells assessed as inhibition of cell growth incubated for 72 hrs by MTT assay
# Assay type: functional, cell-based
# Settings: NCI-H520, 72 h
row,IC50 [nM],Compound
1,23200,COC(=O)c1ccc(CCCCn2cc(-c3ccc(Cn4cc(F)c(N)nc4=O)cc3)nn2)cc1
2,12200,COC(=O)c1ccc(CCCCn2cc(-c3ccc(Cn4ccc(N)nc4=O)cc3)nn2)cc1

# Test system: MDA-MB-231
# Assay: Antiproliferative activity against human MDA-MB-231 cells assessed as inhibition of cell proliferation at 10 uM incubated for 72 hrs by MTT assay relative to control
# Assay type: functional
# Settings: not given
row,Compound,inhibition at 10 µM [%]
1,COC(=O)c1ccc(CCCCn2cc(-c3ccc(Cn4cc(C)c(N)nc4=O)cc3)nn2)cc1,> 50

# Molecular target: Histone acetyltransferase p300 (Homo sapiens, UniProt Q09472)
# Settings: not given
# Sequence of Histone acetyltransferase p300 (Q09472 whole entry): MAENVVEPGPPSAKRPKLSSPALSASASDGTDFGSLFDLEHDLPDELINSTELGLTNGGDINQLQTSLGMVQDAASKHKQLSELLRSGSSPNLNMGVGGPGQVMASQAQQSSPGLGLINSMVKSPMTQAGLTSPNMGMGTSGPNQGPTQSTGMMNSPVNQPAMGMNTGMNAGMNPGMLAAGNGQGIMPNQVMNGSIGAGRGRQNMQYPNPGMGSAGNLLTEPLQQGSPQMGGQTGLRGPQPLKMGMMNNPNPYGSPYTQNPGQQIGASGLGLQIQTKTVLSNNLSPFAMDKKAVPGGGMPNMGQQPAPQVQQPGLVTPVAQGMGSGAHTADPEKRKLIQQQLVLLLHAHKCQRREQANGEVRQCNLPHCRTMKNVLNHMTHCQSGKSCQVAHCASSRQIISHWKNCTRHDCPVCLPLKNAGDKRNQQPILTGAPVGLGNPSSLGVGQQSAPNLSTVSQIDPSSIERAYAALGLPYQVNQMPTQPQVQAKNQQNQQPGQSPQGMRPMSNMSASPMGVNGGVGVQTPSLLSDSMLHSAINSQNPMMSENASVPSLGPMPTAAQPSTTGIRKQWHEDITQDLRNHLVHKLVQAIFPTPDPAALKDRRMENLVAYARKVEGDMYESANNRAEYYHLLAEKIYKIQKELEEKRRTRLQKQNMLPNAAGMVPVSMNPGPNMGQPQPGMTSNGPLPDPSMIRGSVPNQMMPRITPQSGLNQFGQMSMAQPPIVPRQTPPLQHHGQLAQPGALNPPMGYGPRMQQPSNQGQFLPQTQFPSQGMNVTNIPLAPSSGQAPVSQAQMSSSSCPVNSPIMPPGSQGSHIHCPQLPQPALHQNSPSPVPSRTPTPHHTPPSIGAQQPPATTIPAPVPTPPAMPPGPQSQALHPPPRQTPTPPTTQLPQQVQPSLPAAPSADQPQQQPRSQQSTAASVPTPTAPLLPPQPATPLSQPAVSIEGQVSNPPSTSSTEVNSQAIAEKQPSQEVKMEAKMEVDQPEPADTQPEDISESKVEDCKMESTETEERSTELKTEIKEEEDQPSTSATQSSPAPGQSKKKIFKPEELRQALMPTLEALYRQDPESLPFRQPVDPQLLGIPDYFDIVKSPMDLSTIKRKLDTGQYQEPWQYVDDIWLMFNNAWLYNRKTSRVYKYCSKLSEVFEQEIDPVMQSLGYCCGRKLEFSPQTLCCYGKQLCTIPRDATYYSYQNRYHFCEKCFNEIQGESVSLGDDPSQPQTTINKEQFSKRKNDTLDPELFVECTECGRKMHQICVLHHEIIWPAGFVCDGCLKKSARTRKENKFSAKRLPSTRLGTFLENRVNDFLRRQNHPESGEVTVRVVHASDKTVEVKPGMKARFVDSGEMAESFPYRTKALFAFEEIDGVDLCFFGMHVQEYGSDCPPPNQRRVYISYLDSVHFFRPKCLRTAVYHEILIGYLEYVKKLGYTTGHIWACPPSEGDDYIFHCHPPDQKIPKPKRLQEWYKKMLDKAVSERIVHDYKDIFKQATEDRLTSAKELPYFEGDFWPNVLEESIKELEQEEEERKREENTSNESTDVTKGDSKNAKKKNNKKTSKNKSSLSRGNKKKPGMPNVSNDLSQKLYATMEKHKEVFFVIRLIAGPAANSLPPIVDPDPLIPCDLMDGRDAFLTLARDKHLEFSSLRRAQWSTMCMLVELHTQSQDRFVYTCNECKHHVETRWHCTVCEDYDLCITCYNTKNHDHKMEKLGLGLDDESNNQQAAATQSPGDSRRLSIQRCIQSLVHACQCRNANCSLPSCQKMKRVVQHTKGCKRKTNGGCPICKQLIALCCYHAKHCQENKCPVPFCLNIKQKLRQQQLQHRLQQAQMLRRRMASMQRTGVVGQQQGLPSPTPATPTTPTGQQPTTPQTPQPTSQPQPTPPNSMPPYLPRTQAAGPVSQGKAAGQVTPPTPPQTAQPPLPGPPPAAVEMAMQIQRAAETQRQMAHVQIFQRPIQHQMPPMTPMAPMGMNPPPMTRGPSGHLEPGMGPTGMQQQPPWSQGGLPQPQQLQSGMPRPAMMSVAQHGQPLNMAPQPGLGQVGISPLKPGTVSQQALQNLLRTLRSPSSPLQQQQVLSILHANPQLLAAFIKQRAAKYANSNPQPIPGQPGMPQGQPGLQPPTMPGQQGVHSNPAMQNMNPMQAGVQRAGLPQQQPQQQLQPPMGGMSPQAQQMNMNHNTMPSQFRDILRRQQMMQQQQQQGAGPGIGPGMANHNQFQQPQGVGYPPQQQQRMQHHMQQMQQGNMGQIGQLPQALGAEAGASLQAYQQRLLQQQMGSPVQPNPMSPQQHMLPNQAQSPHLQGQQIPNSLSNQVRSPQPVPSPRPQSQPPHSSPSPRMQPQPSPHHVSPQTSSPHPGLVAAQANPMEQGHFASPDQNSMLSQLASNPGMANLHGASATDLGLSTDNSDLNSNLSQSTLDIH
row,Compound,IC50 [nM]
1,CCOC(=O)CCCCCn1cc(Cn2cc(F)c(N)nc2=O)nn1,800
2,Nc1ccn(Cc2cn(CCCCc3ccc(C(=O)O)cc3)nn2)c(=O)n1,4570
3,CCOC(=O)CCCCCCn1cc(-c2ccc(Cn3cnc(N)nc3=O)cc2)nn1,650
4,CCOC(=O)CCCCCCn1cc(-c2ccc(Cn3cnc4c(N)ncnc43)cc2)nn1,9900
5,Nc1ccn(Cc2ccc(-c3cn(CCCCc4ccc(C(=O)O)cc4)nn3)cc2)c(=O)n1,1140
6,CCOC(=O)CCCCn1cc(-c2ccc(Cn3cnc(N)nc3=O)cc2)nn1,880
7,CCOC(=O)CCCCCn1cc(Cn2cc(C)c(N)nc2=O)nn1,1100
8,CCOC(=O)CCCCCCn1cc(-c2ccc(Cn3ccc(=O)[nH]c3=O)cc2)nn1,2000
9,CCOC(=O)CCCCn1cc(Cn2cnc(N)nc2=O)nn1,7690
10,CCOC(=O)CCCCCCn1cc(-c2ccc(Cn3cc(F)c(N)nc3=O)cc2)nn1,2600
11,CCOC(=O)CCCn1cc(-c2ccc(Cn3cnc(N)nc3=O)cc2)nn1,4590
12,Nc1ccn(Cc2ccc(-c3cn(CCCCCC(=O)O)nn3)cc2)c(=O)n1,4120
13,CCOC(=O)CCCCCCn1cc(-c2ccc(Cn3cc(C)c(N)nc3=O)cc2)nn1,770
14,CCOC(=O)CCCCCn1cc(Cn2ccc(N)nc2=O)nn1,7800
15,CCOC(=O)CCCCn1cc(-c2ccc(Cn3ccc(N)nc3=O)cc2)nn1,560
16,CCOC(=O)CCCCCCn1cc(-c2ccc(Cn3ccc(N)nc3=O)cc2)nn1,640
17,Nc1ccn(Cc2ccc(-c3cn(CCCCCCC(=O)O)nn3)cc2)c(=O)n1,960
18,CCOC(=O)CCCCCn1cc(-c2ccc(Cn3ccc(N)nc3=O)cc2)nn1,600

# Second part, the compound after the results:
row,IC50 [nM],Compound
1,370,COC(=O)c1ccc(CCCCn2cc(-c3ccc(Cn4cc(F)c(N)nc4=O)cc3)nn2)cc1
2,360,CCOC(=O)CCCn1cc(-c2ccc(Cn3ccc(N)nc3=O)cc2)nn1
3,360,COC(=O)c1ccc(CCCCn2cc(-c3ccc(Cn4cnc(N)nc4=O)cc3)nn2)cc1
4,250,Nc1nc(=O)n(Cc2ccc(-c3cn(CCCCc4ccc(C(=O)O)cc4)nn3)cc2)cc1F
5,240,Nc1ccn(Cc2ccc(-c3cn(CCCCC(=O)O)nn3)cc2)c(=O)n1
6,560,Nc1ccn(Cc2ccc(-c3cn(CCCC(=O)O)nn3)cc2)c(=O)n1
7,180,COC(=O)c1ccc(CCCCn2cc(-c3ccc(Cn4ccc(N)nc4=O)cc3)nn2)cc1
8,530,CCOC(=O)CCCCCn1cc(-c2ccc(Cn3cnc(N)nc3=O)cc2)nn1
9,480,CCOC(=O)CCCCCn1cc(Cn2cnc(N)nc2=O)nn1
10,430,CCOC(=O)CCCCCCn1cc(Cn2cnc(N)nc2=O)nn1
11,240,COC(=O)c1ccc(CCCCn2cc(-c3ccc(Cn4cc(C)c(N)nc4=O)cc3)nn2)cc1
